From patent publication US20200253877A1, “GEMCABENE, PHARMACEUTICALLY ACCEPTABLE SALTS THEREOF, COMPOSITIONS THEREOF AND METHODS OF USE THEREFOR” (NEUROBO PHARMACEUTICALS, INC., priority 2018, published 2020)

Assays:
[1] = system: STAM™ mice, a murine model of NASH-HCC; test: Murine STAM model of NASH-HCC: whole blood, plasma and liver biochemistry; settings: mean ± SD, n = 8; for Fasting blood glucose / Plasma insulin: Day 18 after 8 hours of fasting; for Liver free fatty acid / Liver hydroxyproline / Liver triglyceride / Non-fasting blood glucose / Plasma ApoC-III / Plasma CRP / Plasma adiponectin / Plasma alanine aminotransferase / Plasma alkaline phosphatase / Plasma aspartate aminotransferase / Plasma blood urea nitrogen / Plasma creatinine / Plasma gamma-glutamyl transferase / Plasma ketone body / Plasma leptin / Plasma total bilirubin / Plasma total cholesterol / Plasma triglyceride: at termination (Day 21)
[2] = system: hepatic mRNA expression in STAM™ mice; test: Murine STAM model of NASH-HCC: hepatic gene expression by quantitative RT-PCR; assay type: in vivo, mouse; settings: 30 mg/kg, n = 8, STAM mice, normalized to non-treated group
Description: A study was performed to evaluate the efficacy of gemcabene calcium salt hydrate Crystal Form 1 having a PSD90 of 52 μm as measured by laser light diffraction, in treating non-alcoholic steatosis hepatitis (NASH) in the murine STAM™ model of NASH-HCC.
Briefly, two-day old neonatal C57BL/6 male mice were administered low-dose streptozotocin (STZ), and were subsequently fed a HFC diet from 4 weeks of age. In this model, the mice typically develop liver steatosis and diabetes, reaching steatohepatitis within 3 weeks, followed by cirrhosis within 8 weeks, and carcinoma within 16 weeks. In the current study, mice were administered daily oral gemcabene calcium salt hydrate Crystal Form 1 starting at week 6 of age and were sacrificed at week 9. […] These STAM™ groups were orally administered from week 6 one of the following: water-vehicle, gemcabene calcium salt hydrate Crystal Form 1 at 30, 100 and 300 mg/kg daily, or telmisartan ([…]®) 10 mg/kg daily. […] All groups were sacrificed at week 9. Vehicle, gemcabene calcium salt hydrate Crystal Form 1, or telmisartan were administered by oral gavage once daily.
Various gene expression markers of liver metabolism were evaluated by Real-Time PCR (RT-PCR) in all mouse groups. Total RNA was extracted from liver samples using RNAiso (Takara Bio, Japan) according to the manufacturer's instructions. […] of RNA was reverse-transcribed using a reaction mixture containing 4.4 mM MgCl2 (F. Hoffmann-La Roche, Switzerland), 40 U RNase inhibitor (Toyobo, Japan), 0.5 mM dNTP (Promega, USA), 6.28 μM random hexamer (Promega), 5×first strand buffer (Promega), 10 mM dithiothreitol (Invitrogen, USA) and 200 U MMLV-RT (Invitrogen) in a final volume of 20 μL. The reaction was carried out for 1 hour at 37° C., followed by 5 minutes at 99° C. Real-time PCR was performed using real-time PCR DICE and SYBR premix Taq (Takara Bio). To calculate the relative mRNA expression level, the expression of each gene was normalized to that of reference gene 36B4 (gene symbol: RplpO). Information of PCR-primer sets is described in Tables 37A-37C. Statistical analyses were performed using the Bonferroni Multiple Comparison Test on GraphPad Prism 6 (GraphPad Software Inc., USA). P values <0.05 were considered statistically significant. Results are expressed as mean±SD.
In order to calculate the relative mRNA expression level, the expression of each gene was normalized to that of the reference gene 36B4 (gene symbol: RplpO). The gene expression levels were measured by quantitative RT-PCR. Results were normalized with values for the vehicle-treated normal group. […] Gemcabene calcium salt hydrate Crystal Form 1 (PSD90=52 μm) modulated the mRNA expression of many hepatic genes that play a significant role in the liver homeostasis and injury.

CC(C)(CCCCOCCCCC(C)(C)C(=O)O)C(=O)O [gemcabene, 6-(5-carboxy-5-methyl-hexyloxy)-2,2-dimethyl-hexanoic acid]
Fasting blood glucose ([1]; 30 mg/kg PO QD): 437 ± 42 mg/dL | Plasma insulin ([1]; 30 mg/kg PO QD): 0.13 ± 0.04 ng/mL | Liver free fatty acid ([1]; 30 mg/kg PO QD): 35.1 ± 8.4 pEq/g liver | Liver hydroxyproline ([1]; 30 mg/kg PO QD): 0.66 ± 0.12 μg/mg total protein | Liver triglyceride ([1]; 30 mg/kg PO QD): 49.2 ± 8.6 mg/g liver | Non-fasting blood glucose ([1]; 30 mg/kg PO QD): 607 ± 48 mg/dL | Plasma ApoC-III ([1]; 30 mg/kg PO QD): 6.6 ± 0.8 gg/mL | Plasma CRP ([1]; 30 mg/kg PO QD): 2.5 ± 0.3 gg/mL | Plasma adiponectin ([1]; 30 mg/kg PO QD): 4.1 ± 0.9 gg/mL | Plasma alanine aminotransferase ([1]; 30 mg/kg PO QD): 41 ± 15 U/L | Plasma alkaline phosphatase ([1]; 30 mg/kg PO QD): 382 ± 78 U/L | Plasma aspartate aminotransferase ([1]; 30 mg/kg PO QD): 100 ± 44 U/L | Plasma blood urea nitrogen ([1]; 30 mg/kg PO QD): 25.0 ± 3.9 mg/dL | Plasma creatinine ([1]; 30 mg/kg PO QD): 0.1 ± 0.0 mg/dL | Plasma gamma-glutamyl transferase ([1]; 30 mg/kg PO QD): 1 ± 0 U/L | Plasma ketone body ([1]; 30 mg/kg PO QD): 9.43 ± 2.35 m M | Plasma leptin ([1]; 30 mg/kg PO QD): 3.1 ± 1.2 ng/mL | Plasma total bilirubin ([1]; 30 mg/kg PO QD): 0.2 ± 0.1 mg/dL | Plasma total cholesterol ([1]; 30 mg/kg PO QD): 194 ± 17 mg/dL | Plasma triglyceride ([1]; 30 mg/kg PO QD): 319 ± 198 mg/dL | Fasting blood glucose ([1]; 100 mg/kg PO QD): 441 ± 46 mg/dL | Plasma insulin ([1]; 100 mg/kg PO QD): 0.17 ± 0.06 ng/mL | Liver free fatty acid ([1]; 100 mg/kg PO QD): 38.4 ± 8.5 pEq/g liver | Liver hydroxyproline ([1]; 100 mg/kg PO QD): 0.74 ± 0.38 μg/mg total protein | Liver triglyceride ([1]; 100 mg/kg PO QD): 58.4 ± 14.5 mg/g liver | Non-fasting blood glucose ([1]; 100 mg/kg PO QD): 653 ± 53 mg/dL | Plasma ApoC-III ([1]; 100 mg/kg PO QD): 6.0 ± 2.5 gg/mL | Plasma CRP ([1]; 100 mg/kg PO QD): 1.9 ± 0.3 gg/mL | Plasma adiponectin ([1]; 100 mg/kg PO QD): 4.1 ± 0.5 gg/mL | Plasma alanine aminotransferase ([1]; 100 mg/kg PO QD): 27 ± 7 U/L | Plasma alkaline phosphatase ([1]; 100 mg/kg PO QD): 642 ± 167 U/L | Plasma aspartate aminotransferase ([1]; 100 mg/kg PO QD): 88 ± 32 U/L | Plasma blood urea nitrogen ([1]; 100 mg/kg PO QD): 29.8 ± 4.3 mg/dL | Plasma creatinine ([1]; 100 mg/kg PO QD): 0.1 ± 0.1 mg/dL | Plasma gamma-glutamyl transferase ([1]; 100 mg/kg PO QD): 1 ± 0 U/L | Plasma ketone body ([1]; 100 mg/kg PO QD): 5.75 ± 3.24 m M | Plasma leptin ([1]; 100 mg/kg PO QD): 4.3 ± 1.2 ng/mL | Plasma total bilirubin ([1]; 100 mg/kg PO QD): 0.3 ± 0.2 mg/dL | Plasma total cholesterol ([1]; 100 mg/kg PO QD): 228 ± 37 mg/dL | Plasma triglyceride ([1]; 100 mg/kg PO QD): 191 ± 57 mg/dL | Fasting blood glucose ([1]; 300 mg/kg PO QD): 407 ± 15 mg/dL | Plasma insulin ([1]; 300 mg/kg PO QD): 0.13 ± 0.04 ng/mL | Liver free fatty acid ([1]; 300 mg/kg PO QD): 46.0 ± 5.5 pEq/g liver | Liver hydroxyproline ([1]; 300 mg/kg PO QD): 0.70 ± 0.10 μg/mg total protein | Liver triglyceride ([1]; 300 mg/kg PO QD): 56.0 ± 13.9 mg/g liver | Non-fasting blood glucose ([1]; 300 mg/kg PO QD): 638 ± 63 mg/dL | Plasma ApoC-III ([1]; 300 mg/kg PO QD): 6.2 ± 0.7 gg/mL | Plasma CRP ([1]; 300 mg/kg PO QD): 1.9 ± 0.4 gg/mL | Plasma adiponectin ([1]; 300 mg/kg PO QD): 4.9 ± 0.5 gg/mL | Plasma alanine aminotransferase ([1]; 300 mg/kg PO QD): 32 ± 14 U/L | Plasma alkaline phosphatase ([1]; 300 mg/kg PO QD): 794 ± 57 U/L | Plasma aspartate aminotransferase ([1]; 300 mg/kg PO QD): 147 ± 122 U/L | Plasma blood urea nitrogen ([1]; 300 mg/kg PO QD): 30.1 ± 5.8 mg/dL | Plasma creatinine ([1]; 300 mg/kg PO QD): 0.2 ± 0.1 mg/dL | Plasma gamma-glutamyl transferase ([1]; 300 mg/kg PO QD): 1 ± 0 U/L | Plasma ketone body ([1]; 300 mg/kg PO QD): 5.68 ± 3.08 m M | Plasma leptin ([1]; 300 mg/kg PO QD): 3.2 ± 1.1 ng/mL | Plasma total bilirubin ([1]; 300 mg/kg PO QD): 0.3 ± 0.1 mg/dL | Plasma total cholesterol ([1]; 300 mg/kg PO QD): 234 ± 45 mg/dL | Plasma triglyceride ([1]; 300 mg/kg PO QD): 149 ± 32 mg/dL | ACC1 gene expression (mean ± SD) [2]: 1.0 ± 0.1 | ACC2 gene expression (mean ± SD) [2]: 0.6 ± 0.2 | ADH-4 gene expression (mean ± SD) [2]: 0.8 ± 0.2 | ANGPTL3 gene expression (mean ± SD) [2]: 0.7 ± 0.2 | ANGPTL4 gene expression (mean ± SD) [2]: 2.9 ± 0.5 | ANGPTL8 gene expression (mean ± SD) [2]: 0.3 ± 0.1 | ApoC-III gene expression (mean ± SD) [2]: 0.7 ± 0.1 | CCR2 gene expression (mean ± SD) [2]: 3.3 ± 1.0 | CCR5 gene expression (mean ± SD) [2]: 2.4 ± 0.9 | CRP gene expression (mean ± SD) [2]: 0.9 ± 0.2
